The values below are quoted from earlier work in US12377034B2, “Method for dyeing keratinous material, comprising the use of an organosilicon compound, an effect pigment and a film-forming polymer II” (Henkel AG & Co. KGaA, priority 2019, dated 2025).

The conditions of this data set: for solubility in water: 25° C.

As for `CCN(Cc1cccc(S(=O)(=O)O)c1)c1ccc(C(=C2C=CC(=[N+](CC)Cc3cccc(S(=O)(=O)O)c3)C=C2)c2ccccc2S(=O)(=O)[O-])cc1` [Acid Blue 9], the solubility in water result is on record as “more than 20 % by weight”.

For `O=S(=O)(O)c1ccc(N=Nc2c(O)ccc3ccccc23)cc1` [Acid Orange 7, 4-[(2-hydroxy-1-naphthyl)azo]benzene sulphonate], the solubility in water entry is “more than 7 g/L”.

Consider `O=[N+]([O-])c1cc([N+](=O)[O-])c2ccc(S(=O)(=O)O)cc2c1O` [Acid Yellow 9, 8-hydroxy-5,7-dinitro-2-naphthalenesulfonic acid], for which the solubility in water result was “above 40 g/L”.

For the molecule `O=C(O)C1=NN(c2ccc(S(=O)(=O)O)cc2)C(=O)C1N=Nc1ccc(S(=O)(=O)O)cc1` (stereo not shown) [Acid Yellow 23, 4,5-dihydro-5-oxo-1-(4-sulfophenyl)-4-((4-sulfophenyl)azo)-1H-pyrazole-3-carboxylic acid], the “solubility in water (in words)” value (at 25° C.) was “highly soluble”.
